Laboratory results published in patent US9295651B2, “Nanoconjugates and nanoconjugate formulations” (priority 2009, dated 2016).

What was measured:
[1] = test system: LLC tumors; test: Tumor prevention/inhibition study, LLC cells co-injected subcutaneously with test article; assay type: in vivo, C57B1/6 female mice; settings: at 25 days, 5 mg/kg in 1:1 Cremophor EL/ethanol
Method: To access the ability of paclitaxel-loaded nanoparticles to inhibit establishment of lung cancer in an in vivo model mimicking microscopic disease that can remain when the surgical margin is close to the tumor, Ptxl-PLA NCs were evaluated in a rapidly growing subcutaneous tumor model. Specifically, the ability of Ptxl-PLA NCs to prevent establishment of rapidly growing LLC tumors in C57B1/6 female mice compared to Ptxl alone (in a clinical formulation) and controls without any drugs was assessed. In these experiments, 1,000,000 LLC tumor cells plus Ptxl-LA25/PLGA-mPEG nanoparticles containing a total dose of 5 or 50 mg/kg incorporated Ptxl were injected subcutaneously into the flank of a mouse. Other groups received the injection of 1,000,000 LLC cells alone or LLC cells mixed with Ptxl solubilized with 1:1 Cremophor EL/ethanol as used clinically at 5 mg/kg dosage.

[2] = Lyophilization of PLGA-mPEG NPs in the presence of lyoprotectants, reconstitution with water, DLS; assay type: physicochemical; set-up: key to Aggr. (visible large aggregates): Y = aggregates observed; N = no aggregates observed; settings: for Size in nm: PLGA-mPEG NPs lyophilized and reconstituted; for prevention of NP aggregation during lyophilization (in words): PLGA-mPEG5k NPs, lyoprotectant/NP mass ratio up to 10
Method: Lyophilization of PLGA-mPEG NPs in the presence of lyoprotectants. An acetone solution of PLGA-mPEG (5 mg/mL, 100 μL) was added dropwise into a vigorously stirred water solution (4 mL) containing the NCs to make the PLGA-mPEG NPs. A lyoprotectant was added to the vigorously stirred NC solution at the selected lyoprotectant/NC mass ratio (varying from 2 to 20). The solution was then lyophilized, reconstituted with 2 mL water and stirred for 5 minutes. The sizes of the resulting NCs were analyzed by DLS.

Structure (SMILES) | tumors at injection site [1] | Size in nm ([2]; lyoprotectant/NP mass ratio 2) [nm] | Size in nm ([2]; lyoprotectant/NP mass ratio 10) [nm] | Aggr. (visible large aggregates) ([2]; lyoprotectant/NP mass ratio 2) | Aggr. (visible large aggregates) ([2]; lyoprotectant/NP mass ratio 10) | Distr. No. (number of particle size distributions) ([2]; lyoprotectant/NP mass ratio 10) | PDI ([2]; lyoprotectant/NP mass ratio 10) | SL/SO (ratio of lyophilized NP size to pre-lyophilized NP size) ([2]; lyoprotectant/NP mass ratio 10) | Distr. No. (number of particle size distributions) ([2]; lyoprotectant/NP mass ratio 2) | PDI ([2]; lyoprotectant/NP mass ratio 2) | SL/SO (ratio of lyophilized NP size to pre-lyophilized NP size) ([2]; lyoprotectant/NP mass ratio 2) | prevention of NP aggregation during lyophilization (in words) [2]
CC(=O)O[C@H]1C(=O)[C@@]2(C)[C@H]([C@H](OC(=O)c3ccccc3)[C@]3(O)C[C@H](OC(=O)[C@H](O)[C@@H](NC(=O)c4ccccc4)c4ccccc4)C(C)=C1C3(C)C)[C@]1(OC(C)=O)CO[C@@H]1C[C@@H]2O [paclitaxel] | large tumors were noted |  |  |  |  |  |  |  |  |  |  | 
OC[C@H]1O[C@H](O[C@H]2[C@H](O)[C@@H](O)C(O)O[C@@H]2CO)[C@H](O)[C@@H](O)[C@@H]1O (mixture of isomers) [Maltose] |  | >1000 | 220.4 | Y | Y | 2 | 0.288 | 3.54 |  |  |  | 
OC[C@H]1O[C@@](CO)(O[C@H]2O[C@H](CO)[C@@H](O)[C@H](O)[C@H]2O)[C@@H](O)[C@@H]1O [Sucrose] |  | 245.2 | 217.5 | Y | Y | 2 | 0.220 | 3.49 | 2 | 0.227 | 3.93 | 
NCC(=O)O [Glycine] |  |  | >1000 |  | Y |  |  |  |  |  |  | unable to prevent NP aggregation
OC[C@@H](O)[C@@H](O)[C@H](O)[C@@H](O)CO [Sorbitol] |  | >1000 | 764.8 | Y | Y | 2 | 0.299 | 12.28 |  |  |  | 
CCCCCCCCCCCCOS(=O)(=O)[O-].[Na+] [SDS, sodium dodecyl sulfate] |  |  | >1000 |  | Y |  |  |  |  |  |  | unable to prevent NP aggregation
O=C[C@H](O)[C@@H](O)[C@@H](O)[C@H](O)CO [Galactose] |  |  | >1000 |  | Y |  |  |  |  |  |  | could not prevent NP aggregation at all
